Assays:
[1] = tested on: bleomycin-induced lung fibrosis; assay: Bleomycin-induced lung fibrosis study; format: in vivo, mice; settings: for formation of fibrosis, Masson's trichrome stained lung tissue: 25 or 50 mg/kg BID, responding animals; for Ashcroft score, group comparison to the bleomycin/vehicle group: all doses, five animals per group
Procedure: The most common animal model of pulmonary fibrosis is the bleomycin-induced lung fibrosis model in rodents. This model is commonly used to investigate biology and potential therapies for fibrotic diseases affecting the lung, such as idiopathic pulmonary fibrosis (IPF). Bleomycin, a cytotoxic drug, is administered to mice or rats and causes direct cell injury triggered by DNA strand breaks, which leads to an overproduction of reactive oxygen species causing inflammation, pulmonary toxicity, activation of fibroblasts and subsequent fibrosis. Fibrosis is hallmarked by aberrant activation of lung epithelial cells and accumulation of fibroblasts and myofibroblasts with excessive production of extracellular matrix such as collagen. To test the ability of Compound 01 and Compound 04 to reduce fibrosis in vivo, a bleomycin induced lung fibrosis model in mice was utilized and endpoints such as lung hydroxyproline levels, a surrogate marker of collagen and fibrosis, and histological scoring of fibrosis were performed.
For this study, male C57BL/6J mice approximately 6 to 7 weeks old (purchased from Charles River) were weighed on the day prior to study day 0 to establish a baseline. All study arms contained sixteen total animals, except the sham/vehicle group, which contained 10 animals. All animals, except the sham/vehicle group were dosed intranasally with 4 international units per kilogram bleomycin in the morning of day 1 of the study. Bleomycin was prepared in a solution of 0.9 percent sodium chloride. All drugs were prepared in 10 percent Tween 20. Starting in the evening on day 1 of the study, one dose of Compound 04 or Compound 01 was given at either twenty-five or fifty milligrams per kilogram per oral gavage. For all subsequent days of the twenty-one day study, animals were dosed twice a day per oral gavage with either twenty-five or fifty milligram per kilogram of Compound 04 or Compound 01. At day twenty-one, the lungs were harvested and either snap frozen or fixed in paraformaldehyde. The left lobe of the lungs was subjected to hydroxyproline quantification, which was used as a biomarker of fibrosis and total collagen. The remaining lung tissue was fixed in paraformaldehyde to be processed for histological examination following hematoxylin-eosin (H&E) and Masson trichrome staining. […]. Clinical observations were recorded daily.

athymic nude mice = settings: mouse, in vivo; for therapeutic index: female, athymic nude (NCRNU), 5 days; for MTD / tolerability, acute MTD study: po
Procedure: . Evaluation of the acute and chronic maximum tolerated dose (MTD) for Compound 04 and Compound 01 was carried out by oral gavage administration of each compound to athymic nude mice according to the following procedure.
Five weeks-old female athymic nude mice (NCRNU) were purchased from Taconic Biosciences, Rensselaer NY, and acclimated for one week. Mice were approximately […] when enrolled in the study. All compounds were resuspended in 1-methyl-2-pyrrolidinone (Sigma, 494496) (10% v/v) plus 20% Solutol (Sigma 42966) in water (90% v/v). Mice were randomized according to the baseline weight (Day 1) at the beginning of the acute and chronic MTD studies.
For the acute MTD study, mice were administered three escalating doses of each compound every other day (two animals per group). Mice were dosed by oral gavage with one hundred milligrams per kilogram on day one, five hundred milligrams per kilogram on day three, and one thousand milligrams per kilogram on day five. Body weight was measured every day, and the percent body weight change was calculated.
For the chronic MTD study, three groups, with three mice per group were dosed daily for five consecutive days, at one hundred, three hundred, or one thousand milligrams per kilogram of Compound 04 or Compound 01, and observed for five consecutive days post-dosing during recovery. Body weight was measured, and clinical observations were recorded daily for ten consecutive days. A vehicle only treatment group of three mice was included to evaluate potential toxicity of the vehicle. The percent body weight change for each day was calculated based on Day 1 measurements.

[2] = tested on: TGF-β1-mediated αSMA expression; settings: human, 73 h
Procedure: To test the ability of selected compounds to inhibit the TGF-β1-dependent transition of fibroblasts to myofibroblasts in a relevant disease model of IPF, an FMT assay was performed using lung fibroblasts from IPF patients. In this assay, the transition of fibroblasts to myofibroblasts is determined by the expression of the biomarker alpha smooth muscle actin (α-SMA).
Primary human bronchial fibroblasts derived from IPF patients were seeded on day zero and the media was refreshed on day two. On day five, selected compounds or controls were added at an eight-point concentration response curve starting at 10 μM (semi-log dilutions). Each drug concentration condition was evaluated in biological duplicates. […] Seventy-two hours following TGF-beta addition, the cells were fixed with formaldehyde. High content imaging evaluating cell number using the nuclear stain DAPI as well as the expression of a-SMA was performed. The following controls were run alongside the selected compounds: vactosertib and the approved IPF drug nintedanib (at an eight-point, semi-log curve with 10 μM starting concentration). As a negative control 0.1% DMSO was also used, matching the DMSO concentration in treated wells. The following calculations were used to determine cell number as well as percent inhibition (PIN) of alpha SMA expression:
• Segmentation and quantification of αSMA immunoreactivity by an HCA algorithm, with density×area (D×A) output • Data normalization of raw αSMA (D×A) to percentage inhibition (PIN) values, on a plate-to-plate basis
• DAPI fluorescence applied for HCA-based quantification of the number of imaged cells, on a plate-to-plate basis
[formula] • μn is the average numbers of nuclei of the vehicle control (TGF-β1+0.1% DMSO) • Xi is the compound number of nuclei

Compound	formation of fibrosis, Masson's trichrome stained lung tissue [1]	Ashcroft score, group comparison to the bleomycin/vehicle group [1]	therapeutic index (athymic nude mice)	MTD (athymic nude mice)	tolerability, acute MTD study (athymic nude mice)	Potentially toxic concentration [2]
Cc1nn(CC(F)(F)F)cc1Nc1cc(Nc2cnnc3c(C)cccc23)ccn1 [Compound 01, N2-[3-methyl-1-(2,2,2-trifluoroethyl)-1H-pyrazol-4-yl]-N4-(8-methylcinnolin-4-yl)pyridine-2,4-diamine]	reduced the formation of fibrosis	not statistically significant	less than 4 ×	less than three hundred	well tolerated in mice at one thousand milligrams per kilogram with single dose administration	
Clc1cccc2c(Nc3ccnc(Nc4cccc(N5CCOCC5)c4)c3)cnnc12 [Compound 04, N4-(8-chlorocinnolin-4-yl)-N2-[3-(morpholin-4-yl)phenyl]pyridine-2,4-diamine]	reduced the formation of fibrosis	not statistically significant	6 ×	three hundred	well tolerated in mice at one thousand milligrams per kilogram with single dose administration	
Cc1cccc(-c2[nH]c(CNc3ccccc3F)nc2-c2ccc3ncnn3c2)n1 [Vactosertib, vactosertib, reference compound]						5.0
